molecular target: T1, USP7 (Homo sapiens, UniProt Q93009); test: USP7 biochemical IC50 assay (fluorescence polarisation, TAMRA labelled peptide linked to ubiquitin via an iso-peptide bond); conditions: 30 min pre-incubation of enzyme and compound, read after 2 hr incubation at room temperature, read-out: IC50 range
T1 construct: The USP7 construct was PCR amplified and cloned into a pFLAG-CMV-6a vector (Sigma-Aldrich) with an N-terminal FLAG tag; made in house; host or cells: HEK293T
Experimental: In Vitro USP7 Inhibition Assay
Expression and Purification of USP7
The USP7 construct was PCR amplified and cloned into a pFLAG-CMV-6a vector (Sigma-Aldrich) with an N-terminal FLAG tag. HEK293T cells were transfected with FLAG-USP7 using TransIT-LT1 transfection reagent (Mirus) according to the manufacturer's instructions. Cells were harvested 40 hours after transfection. […] The resin was washed two times with low salt buffer plus protease inhibitors (complete mini, Roche) and phosphatase inhibitors (PhosSTOP mini, Roche) and one time with high salt buffer (20 mM Tris, pH 7.5, 500 mM NaCl, 0.5 mM EDTA, 5 mM beta-mercaptoethanol, protease inhibitors (complete mini, Roche) and phosphatase inhibitors (PhosSTOP mini, Roche). To elute the bound USP7, elution buffer (10 mM Tris, pH 7.5, 150 mM NaCl, 0.5 mM EDTA, 10% glycerol, 0.5% NP40, 5 mM beta-mercaptoethanol, 0.15 mg/ml 3×FLAG peptide (Sigma-Aldrich)) was added to the resin and incubated at 4° C. for 2.5 hours rotating. The resin was centrifuged at 4000 rpm for 30 seconds, and the supernatant containing purified FLAG-USP7 was removed and stored at −80° C.
USP7 Biochemical IC50 Assay
A typical 8-point dilution series would be 100, 30, 10, 3, 1, 0.3, 0.1, 0.03 μM final. […] Either 1 μl of 50% DMSO or diluted compound was added to the plate. USP7 was diluted in reaction buffer (20 mM Tris, pH 7.5, 100 mM NaCl, 0.05% Tween 20, 0.5 mg/ml BSA, 5 mM—beta mercaptoethanol) to the equivalent of 0.0025 μl/well and 10 μl of diluted USP7 was added to the compound. Enzyme and compound were incubated for 30 min at room temp. Reactions were initiated by the addition of 50 nM of TAMRA labelled peptide linked to ubiquitin via an iso-peptide bond as fluorescence polarisation substrate. Reactions were read immediately after addition of substrate and following a 2 hr incubation at room temperature. Readings were performed on a Pherastar Plus (BMG Labtech). λ Excitation 540 nm; λ Emission 590 nm.

T1 sequence (Q93009 whole entry): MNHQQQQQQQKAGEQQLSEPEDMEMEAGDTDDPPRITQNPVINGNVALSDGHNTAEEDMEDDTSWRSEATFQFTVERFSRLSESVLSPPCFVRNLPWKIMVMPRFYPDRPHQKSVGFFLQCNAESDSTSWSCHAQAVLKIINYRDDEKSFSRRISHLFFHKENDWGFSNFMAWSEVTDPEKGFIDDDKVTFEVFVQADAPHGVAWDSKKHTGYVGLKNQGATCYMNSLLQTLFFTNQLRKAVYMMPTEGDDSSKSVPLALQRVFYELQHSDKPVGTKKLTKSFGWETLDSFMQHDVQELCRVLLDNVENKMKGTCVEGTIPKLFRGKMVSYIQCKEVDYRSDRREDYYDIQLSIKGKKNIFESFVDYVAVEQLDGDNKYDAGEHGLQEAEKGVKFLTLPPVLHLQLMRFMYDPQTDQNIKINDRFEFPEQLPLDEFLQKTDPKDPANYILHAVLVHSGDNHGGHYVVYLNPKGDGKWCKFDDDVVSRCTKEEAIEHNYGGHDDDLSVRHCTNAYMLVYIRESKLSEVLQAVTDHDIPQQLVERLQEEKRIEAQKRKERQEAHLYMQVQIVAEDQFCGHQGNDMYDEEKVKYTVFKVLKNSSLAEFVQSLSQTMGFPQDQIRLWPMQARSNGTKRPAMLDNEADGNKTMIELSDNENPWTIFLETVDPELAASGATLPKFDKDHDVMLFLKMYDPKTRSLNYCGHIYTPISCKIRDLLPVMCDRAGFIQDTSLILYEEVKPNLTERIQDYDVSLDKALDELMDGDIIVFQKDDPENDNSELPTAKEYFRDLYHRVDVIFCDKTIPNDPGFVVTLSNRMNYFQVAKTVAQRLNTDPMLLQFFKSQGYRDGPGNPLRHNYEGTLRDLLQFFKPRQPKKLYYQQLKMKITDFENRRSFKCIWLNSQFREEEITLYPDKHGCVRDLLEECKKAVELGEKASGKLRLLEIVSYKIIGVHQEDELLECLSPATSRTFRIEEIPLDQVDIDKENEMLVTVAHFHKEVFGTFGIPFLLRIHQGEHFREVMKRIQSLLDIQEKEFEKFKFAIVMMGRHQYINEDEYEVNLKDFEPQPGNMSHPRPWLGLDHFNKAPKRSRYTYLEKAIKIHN

IC50	SMILES
1 to 10 µM	CN1CCC[C@@H](C(=O)Nc2cc3c(c(-c4cccc(Cl)c4)c2)CN(C#N)C3)C1 [Example 34, (R)-N-(7-(3-chlorophenyl)-2-cyanoisoindolin-5-yl)-1-methylpiperidine-3-carboxamide]
< 1 µM	CN1CCC[C@H](C(=O)Nc2cc3c(c(-c4ccccc4)c2)CN(C#N)C3)C1 [Example 37, (S)—N-(2-cyano-7-phenylisoindolin-5-yl)-1-methylpiperidine-3-carboxamide]
< 1 µM	CN1CCC[C@@H](C(=O)Nc2cc3c(c(-c4ccccc4)c2)CN(C#N)C3)C1 [Example 38, (R)—N-(2-cyano-7-phenylisoindolin-5-yl)-1-methylpiperidine-3-carboxamide]
1 to 10 µM	Cn1nccc1C(=O)Nc1cc2c(c(-c3ccccc3)c1)CN(C#N)C2 [Example 39, N-(2-cyano-7-phenylisoindolin-5-yl)-1-methyl-1H-pyrazole-5-carboxamide]
< 1 µM	N#CN1Cc2cc(NC(=O)C3CNC(=O)C3)cc(-c3ccccc3)c2C1 (centres unmarked) [Example 42, N-(2-cyano-7-phenylisoindolin-5-yl)-5-oxopyrrolidine-3-carboxamide]
30 to 100 µM	CN1CCC(C(=O)Nc2cc3c(c(-c4ccccc4)c2)CN(C#N)C3)C1 (centres unmarked) [Example 43, N-(2-cyano-7-phenyl-isoindolin-5-yl)-1-methylpyrrolidine-3-carboxamide]
< 1 µM	CN1CC(C(=O)Nc2cc3c(c(-c4ccccc4)c2)CN(C#N)C3)CCC1=O (centres unmarked) [Example 44, N-(2-cyano-7-phenylisoindolin-5-yl)-1-methyl-6-oxopiperidine-3-carboxamide]
1 to 10 µM	CC(=O)N1CCCC(C(=O)Nc2cc3c(c(-c4ccccc4)c2)CN(C#N)C3)C1 (centres unmarked) [Example 45, 1-acetyl-N-(2-cyano-7-phenylisoindolin-5-yl)piperidine-3-carboxamide]
1 to 10 µM	CN(C)C(=O)CCC(=O)Nc1cc2c(c(-c3ccccc3)c1)CN(C#N)C2 [Example 46, N1-(2-cyano-7-phenylisoindolin-5-yl)-N4,N4-dimethylsuccinamide]
< 1 µM	CC(=O)N1CCC(C(=O)Nc2cc3c(c(-c4ccccc4)c2)CN(C#N)C3)CC1 [Example 47, 1-acetyl-N-(2-cyano-7-phenylisoindolin-5-yl)piperidine-4-carboxamide]
< 1 µM	CN1CCC(C(=O)Nc2cc3c(c(-c4ccccc4)c2)CN(C#N)C3)CC1 [Example 48, N-(2-cyano-7-phenylisoindolin-5-yl)-1-methylpiperidine-4-carboxamide]
< 1 µM	CN(C)CC(=O)Nc1cc2c(c(-c3ccccc3)c1)CN(C#N)C2 [Example 49]
< 1 µM	N#CN1Cc2cc(NC(=O)C3CCOCC3)cc(-c3ccccc3)c2C1 [Example 50, N-(2-cyano-7-phenylisoindolin-5-yl)tetrahydro-2H-pyran-4-carboxamide]
< 1 µM	CN1CC(C(=O)Nc2cc3c(c(-c4ccccc4)c2)CN(C#N)C3)CC1=O (centres unmarked) [Example 52, N-(2-cyano-7-phenylisoindolin-5-yl)-1-methyl-5-oxopyrrolidine-3-carboxamide]
< 1 µM	CN1CCOC(C(=O)Nc2cc3c(c(-c4ccccc4)c2)CN(C#N)C3)C1 (centres unmarked) [Example 53, N-(2-cyano-7-phenylisoindolin-5-yl)-4-methylmorpholine-2-carboxamide]
< 1 µM	CCN1CCOC(C(=O)Nc2cc3c(c(-c4ccccc4)c2)CN(C#N)C3)C1 (centres unmarked) [Example 54, N-(2-cyano-7-phenylisoindolin-5-yl)-4-ethylmorpholine-2-carboxamide]
< 1 µM	CC(C)N1CCOC(C(=O)Nc2cc3c(c(-c4ccccc4)c2)CN(C#N)C3)C1 (centres unmarked) [Example 55, N-(2-cyano-7-phenylisoindolin-5-yl)-4-isopropylmorpholine-2-carboxamide]
1 to 10 µM	CC(=O)Nc1cc2c(c(-c3ccccc3)c1)CN(C#N)C2 [Example 57]
1 to 10 µM	CN1CCCC(C(=O)N(C)c2cc3c(c(-c4ccccc4)c2)CN(C#N)C3)C1 (centres unmarked) [Example 59, N-(2-cyano-7-phenylisoindolin-5-yl)-N,1-dimethylpiperidine-3-carboxamide]
< 1 µM	CN1CCN(C(=O)Nc2cc3c(c(-c4ccccc4)c2)CN(C#N)C3)CC1 [Example 60, N-(2-cyano-7-phenylisoindolin-5-yl)-4-methylpiperazine-1-carboxamide]
1 to 10 µM	CS(=O)(=O)Nc1cc2c(c(-c3ccccc3)c1)CN(C#N)C2 [Example 61, N-(2-cyano-7-phenylisoindolin-5-yl)methanesulfonamide]
< 1 µM	N#CN1Cc2cc(NC(=O)C3CCCNC3)cc(-c3ccccc3)c2C1 (centres unmarked) [Example 62, N-(2-cyano-7-phenylisoindolin-5-yl)piperidine-3-carboxamide]
1 to 10 µM	N#CN1Cc2cc(NC(=O)C3CCNCC3)cc(-c3ccccc3)c2C1 [Example 63, N-(2-cyano-7-phenylisoindolin-5-yl)piperidine-4-carboxamide]
< 1 µM	CN1CCCC(CNc2cc3c(c(-c4ccccc4)c2)CN(C#N)C3)C1 (centres unmarked) [Example 64, 6-(((1-methylpiperidin-3-yl)methyl)amino)-4-phenylisoindoline-2-carbonitrile]

Further lines, the compound ahead of its results:

SMILES	IC50
COc1ccc(-c2cc(NC(=O)[C@@H]3CCCN(C)C3)cc3c2CN(C#N)C3)cc1 [Example 32, (R)-N-(2-cyano-7-(4-methoxyphenyl)isoindolin-5-yl)-1-methylpiperidine-3-carboxamide]	< 1 µM
CN1CCC[C@@H](C(=O)Nc2cc3c(c(-c4ccc(Cl)cc4)c2)CN(C#N)C3)C1 [Example 33, (R)-N-(7-(4-chlorophenyl)-2-cyanoisoindolin-5-yl)-1-methylpiperidine-3-carboxamide]	< 1 µM
Cc1nc2ccc(-c3cc(NC(=O)[C@@H]4CCCN(C)C4)cc4c3CN(C#N)C4)cc2o1 [Example 35, (R)-N-(2-cyano-7-(2-methylbenzo[d]oxazol-6-yl)isoindolin-5-yl)-1-methylpiperidine-3-carboxamide]	< 1 µM
N#CN1Cc2cc(NC(=O)C3CN(Cc4ccccc4)CCO3)cc(-c3ccccc3)c2C1 (centres unmarked) [Example 40, 4-benzyl-N-(2-cyano-7-phenylisoindolin-5-yl)morpholine-2-carboxamide]	1 to 10 µM
N#CN1Cc2cc(NC(=O)CCc3cccnc3)cc(-c3ccccc3)c2C1 [Example 41, N-(2-cyano-7-phenylisoindolin-5-yl)-3-(pyridin-3-yl)propanamide]	1 to 10 µM
N#CN1Cc2cc(NC(=O)C3CCS(=O)(=O)CC3)cc(-c3ccccc3)c2C1 [Example 51, N-(2-cyano-7-phenylisoindoin-5-yl)tetrahydro-2H-thiopyran-4-carboxamide 1,1-dioxide]	1 to 10 µM
CN1CCCC(C(=O)Nc2cc3c(c(-c4ccccc4C(N)=O)c2)CN(C#N)C3)C1 (centres unmarked) [Example 56, N-(7-(2-carbamoylphenyl)-2-cyanoisoindolin-5-yl)-1-methylpiperidine-3-carboxamide]	1 to 10 µM
CC(=O)N(C)c1cc2c(c(-c3ccccc3)c1)CN(C#N)C2 [Example 58, N-(2-cyano-7-phenylisoindolin-5-yl)-N-methylacetamide]	1 to 10 µM
N#Cc1ccc(-c2cccc3c2CN(C#N)C3)c(Cl)c1 [Example 65, 4-(2-chloro-4-cyanophenyl)isoindoline-2-carbonitrile]	1 to 10 µM
Cc1cc(C#N)ccc1-c1cccc2c1CN(C#N)C2 [Example 66, 4-(4-cyano-2-methylphenyl)isoindoline-2-carbonitrile]	1 to 10 µM
Cc1cc(C#N)cc(C)c1-c1cccc2c1CN(C#N)C2 [Example 67, 4-(4-cyano-2,6-dimethylphenyl)isoindoline-2-carbonitrile]	1 to 10 µM
N#CN1Cc2cccc(-c3cccc4c3C(=O)NC4)c2C1 [Example 68, 3-oxo-[4,4′-biisoindoline]-2′-carbonitrile]	1 to 10 µM
N#CN1Cc2cccc(-c3cccc4c3C(=O)NCC4)c2C1 [Example 69, 4-(1-oxo-1,2,3,4-tetrahydroisoquinolin-8-yl)isoindoline-2-carbonitrile]	1 to 10 µM
C[C@@H](O)c1ccccc1-c1cccc2c1CN(C#N)C2 [Example 70, (R)-4-(2-(1-hydroxyethyl)phenyl)isoindoline-2-carbonitrile]	1 to 10 µM
C[C@H](O)c1ccccc1-c1cccc2c1CN(C#N)C2 [Example 71, (S)-4-(2-(1-hydroxyethyl)phenyl)isoindoline-2-carbonitrile]	1 to 10 µM
N#Cc1ccc(-c2cccc3c2CN(C#N)C3)c(C#N)c1 [Example 72, 4-(2-cyanoisoindolin-4-yl)isophthalonitrile]	< 1 µM
N#CN1Cc2cccc(-c3cccc(C(=O)NCc4ccccc4)c3)c2C1 [Example 73, N-benzyl-3-(2-cyanoisoindolin-4-yl)benzamide]	1 to 10 µM
